# From patent US9617216B2, “Antifungal oxodihydropyridinecarbohydrazide derivative” (Daewoong Pharmaceutical Co., Ltd., priority 2013, dated 2017)
# Key:
# Aspergillus fumigatus = assay: In vitro antifungal activity test (MIC), Aspergillus fumigatus; format: cell-based; details: Aspergillus fumigatus; concentration at which growth is inhibited by 50% vs negative control; 35° C., 48 hours, RPMI 1640, alama blue
# Procedure: (§1) The antifungal activities of the compounds of the present invention were evaluated using Candida albicans as yeast fungus, and Aspergillus fumigatus as a filamentous fungus. The above fungi used were all purchased from American Type Culture Collection (ATCC). The strains used in the experiment were inoculated into a Sabouraud dextrose agar medium, and then cultured at 35° C. for a sufficient period of time, e.g., 24 hours for Candida albicans, and about 7 days for Aspergillus fumigatus. As for Candida albicans, about 5 to 7 single colonies were taken from the cultured medium, sufficiently suspended in 1 ml of 0.85% sterile saline solution, and adjusted to have an optical density of 0.095 to 0.107 at 530 nm. A preparation of a strain diluent was diluted in Roswell park memorial institute (RPMI) 1640 medium at a 1:10 ratio, and the resultant was diluted again at a 1:100 ratio to obtain an inoculation preparation for Candida albicans with a concentration of 1.0×10^3 to 5.0×10^3 CFU/mL. As for Aspergillus fumigatus, the cultured Sabouraud dextrose agar was added with 1 mL of 0.2% Tween 20 diluted with 0.85% sterile saline solution, and then the plate was shaken to detach conidium from the plate. The solution collected from the plate surface was transferred into a sterile tube, and placed at room temperature for 5 minutes to deposit heavy substances. The resulting supernatant was transferred into the sterile tube, sufficiently suspended for about 15 seconds, and prepared a strain diluent with a concentration of 0.4×10^6 to 5.0×10^6 CFU/mL using a hemocytometer. The thus prepared strain diluent was diluted in RPMI 1640 medium at a 1:100 ratio to obtain an inoculation preparation for Aspergillus fumigatus. Candida albicans was cultured at 35° C. for 24 hours and Aspergillus fumigatus was cultured at 35° C. for 48 hours, and the concentrations, at which growth is inhibited by 80% or 50% compared to a negative control group, were determined using alama blue color developing reagent. All experiments were repeated twice for each concentration, and the results of antifungal activities (MIC80 MIC50 μg/mL) are shown in Tables 1 to 2.
# Candida albicans = assay: In vitro antifungal activity test (MIC), Candida albicans; format: cell-based; details: Candida albicans; concentration at which growth is inhibited by 80% vs negative control; 35° C., 24 hours, RPMI 1640, alama blue
# Procedure: as §1
Structure (SMILES),MIC50 (Aspergillus fumigatus) [µg/mL],MIC80 (Candida albicans) [µg/mL]
"Cn1cc(C(=O)NNc2ccccc2F)ccc1=O [Example 1, N′-(2-fluorophenyl)-1-methyl-6-oxo-1,6-dihydropyridine-3-carbohydrazide]",0.1,0.05
"Cn1cc(C(=O)NNc2ccc(S(=O)(=O)C(F)(F)F)cc2)ccc1=O [Example 10, 1-methyl-6-oxo-N′-(4-((trifluoromethyl)sulfonyl)phenyl)-1,6-dihydropyridine-3-carbohydrazide]",0.1,0.04
"Cn1cc(C(=O)NNc2ccc(F)cc2F)ccc1=O [Example 11, N′-(2,4-difluorophenyl)-1-methyl-6-oxo-1,6-dihydropyridine-3-carbohydrazide]",0.05,0.03
"Cn1cc(C(=O)NNc2ccc(Cl)cc2Cl)ccc1=O [Example 15, N′-(2,4-dichlorophenyl)-1-methyl-6-oxo-1,6-dihydropyridine-3-carbohydrazide]",1.95,0.03
"Cn1cc(C(=O)NNc2ccc(F)nc2)ccc1=O [Example 18, N′-(6-fluoropyridine-3-yl)-1-methyl-6-oxo-1,6-dihydropyridine-3-carbohydrazide]",0.4,0.03
"Cn1cc(C(=O)NNc2cccc(F)c2)cc(Cl)c1=O [Example 24, 5-chloro-N′-(3-fluorophenyl)-1-methyl-6-oxo-1,6-dihydropyridine-3-carbohydrazide]",1.8,0.06
"Cn1cc(C(=O)NNc2cccc(Cl)c2)cc(Cl)c1=O [Example 26, 5-chloro-N′-(3-chlorophenyl)-1-methyl-6-oxo-1,6-dihydropyridine-3-carbohydrazide]",1,0.06
"O=C(NNc1cccc(F)c1)c1c(Cl)cc(=O)n2c1CCC2 [Example 33, 7-chloro-N′-(3-fluorophenyl)-5-oxo-1,2,3,5-tetrahydroindolizine-8-carbohydrazide]",0.5,0.13
"O=C(NNc1ccc(F)cc1)c1c(Cl)cc(=O)n2c1CCC2 [Example 34, 7-chloro-N′-(4-fluorophenyl)-5-oxo-1,2,3,5-tetrahydroindolizine-8-carbohydrazide]",1,0.25
"COc1ncc(NNC(=O)c2ccc(=O)n(-c3cccc(Cl)c3)c2)cc1F [Example 48, 1-(3-chlorophenyl)-N′-(5-fluoro-6-methoxypyridine-3-yl)-6-oxo-1,6-dihydropyridine-3-carbohydrazide]",0.6,0.04
"O=C(NNc1ccc(F)cc1F)c1ccc(=O)n(Cc2cscn2)c1 [Example 49, N′-(2,4-difluorophenyl)-6-oxo-1-(thiazol-4-ylmethyl)-1,6-dihydropyridine-3-carbohydrazide]",0.3,0.28
"O=C(NNc1cc(F)cc(F)c1)c1ccc(=O)n(Cc2ccc(C(F)(F)F)nc2)c1 [Example 53, N′-(3,5-difluorophenyl)-6-oxo-1-((6-(trifluoromethyl)pyridine-3-yl)methyl)-1,6-dihydropyridine-3-carbohydrazide]",0.7,0.04
"O=C(Cn1cc(C(=O)NNc2ccc(F)cc2)ccc1=O)c1ccc(C(F)(F)F)cc1 [Example 69, N′-(4-fluorophenyl)-6-oxo-1-(2-oxo-2-(4-(trifluoromethyl)phenyl)ethyl)-1,6-dihydropyridine-3-carbohydrazide]",–,0.68
"O=C(Cn1cc(C(=O)NNc2ccc(F)c(F)c2)ccc1=O)c1ccc(C(F)(F)F)cc1 [Example 70, N′-(3,4-difluorophenyl)-6-oxo-1-(2-oxo-2-(4-(trifluoromethyl)phenyl)ethyl)-1,6-dihydropyridine-3-carbohydrazide]",–,0.09
"O=C(Cn1cc(C(=O)NNc2ccc(F)cc2)ccc1=O)Nc1ccc(C(F)(F)F)cc1 [Example 72, 2-(5-(2-(4-fluorophenyl)hydrazinecarbonyl)-2-oxopyridine-1(2H)-yl)-N-(4-(trifluoromethyl)phenyl)acetamide]",–,0.09
"CN(C)C(=O)Cn1cc(C(=O)NNc2ccc(F)cc2)ccc1=O [Example 77, 2-(5-(2-(4-fluorophenyl)hydrazinecarbonyl)-2-oxopyridine-1(2H)-yl)-N,N-dimethylacetamide]",–,1.04
"O=C1NNc2cc(F)ccc2C(=O)OCC/C=C/Cn2cc1ccc2=O [Example 79, (1^5E,10E)-5^5-fluoro-1^1,1^2-dihydro-7-oxa-3,4-diaza-1(5,1)-pyridina-5(1,2)-benzenacyclododecaphan-10-ene-1^2,2,6-trione]",–,8.93
"O=C1NNc2ccccc2OCC/C=C/Cn2cc1ccc2=O [Example 81, (1^5E,9E)-1^1,1^2-dihydro-6-oxa-3,4-diaza-1(5,1)-pyridina-5(1,2)-benzenacycloundecaphan-9-ene-1^2,2-dione]",–,1.95

# Next, values leading:
MIC50 (Aspergillus fumigatus) [µg/mL],MIC80 (Candida albicans) [µg/mL],Structure (SMILES)
–,0.14,"O=C(NNc1cccc(F)c1)c1ccc(=O)n(CCc2ccccc2F)c1 [Example 59, 1-(2-fluorophenethyl)-N′-(3-fluorophenyl)-6-oxo-1,6-dihydropyridine-3-carbohydrazide]"
–,0.14,"O=C(NNc1cccc(F)c1)c1ccc(=O)n(CCc2ccc(F)cc2)c1 [Example 60, 1-(4-fluorophenethyl)-N′-(3-fluorophenyl)-6-oxo-1,6-dihydropyridine-3-carbohydrazide]"
–,0.08,"O=C(NNc1cccc(F)c1)c1ccc(=O)n(CCOc2ccccc2F)c1 [Example 61, 1-(2-(2-fluorophenoxy)ethyl)-N′-(3-fluorophenyl)-6-oxo-1,6-dihydropyridine-3-carbohydrazide]"
–,0.16,"O=C(NNc1cccc(F)c1)c1ccc(=O)n(CCOc2ccc(Cl)cc2)c1 [Example 62, 1-(2-(4-chlorophenoxy)ethyl)-N′-(3-fluorophenyl)-6-oxo-1,6-dihydropyridine-3-carbohydrazide]"
–,0.09,"O=C(NNc1cccc(F)c1)c1ccc(=O)n(CCOc2cccc(C(F)(F)F)c2)c1 [Example 63, N′-(3-fluorophenyl)-6-oxo-1-(2-(3-(trifluoromethyl)phenoxy)ethyl)-1,6-dihydropyridine-3-carbohydrazide]"
–,0.09,"O=C(NNc1cccc(F)c1)c1ccc(=O)n(CCOc2ccc(Cl)cc2Cl)c1 [Example 64, 1-(2-(2,4-dichlorophenoxy)ethyl)-N′-(3-fluorophenyl)-6-oxo-1,6-dihydropyridine-3-carbohydrazide]"
–,0.08,"O=C(NNc1cccc(F)c1)c1ccc(=O)n(CCOc2ccc(F)cc2)c1 [Example 65, 1-(2-(4-fluorophenoxy)ethyl)-N′-(3-fluorophenyl)-6-oxo-1,6-dihydropyridine-3-carbohydrazide]"
–,0.27,"O=C(NNc1cccc(F)c1)c1ccc(=O)n(CC2CCCCC2)c1 [Example 66, 1-(cyclohexylmethyl)-N′-(3-fluorophenyl)-6-oxo-1,6-dihydropyridine-3-carbohydrazide]"
–,0.27,"O=C(NNc1ccc(F)cc1)c1ccc(=O)n(CC2CCCCC2)c1 [Example 67, 1-(cyclohexylmethyl)-N′-(4-fluorophenyl)-6-oxo-1,6-dihydropyridine-3-carbohydrazide]"
–,0.34,"O=C(Cn1cc(C(=O)NNc2cccc(F)c2)ccc1=O)c1ccc(C(F)(F)F)cc1 [Example 68, N′-(3-fluorophenyl)-6-oxo-1-(2-oxo-2-(4-(trifluoromethyl)phenyl)ethyl)-1,6-dihydropyridine-3-carbohydrazide]"
–,0.04,"O=C(Cn1cc(C(=O)NNc2cccc(F)c2)ccc1=O)Nc1ccc(C(F)(F)F)cc1 [Example 71, 2-(5-(2-(3-fluorophenyl)hydrazinecarbonyl)-2-oxopyridine-1(2H)-yl)-N-(4-(trifluoromethyl)phenyl)acetamide]"
–,0.56,"O=C(NNc1cccc(F)c1)c1ccc(=O)n(CCN2CCOCC2)c1 [Example 73, N′-(3-fluorophenyl)-1-(2-morpholinoethyl)-6-oxo-1,6-dihydropyridine-3-carbohydrazide]"
–,0.56,"O=C(NNc1ccc(F)cc1)c1ccc(=O)n(CCN2CCOCC2)c1 [Example 74, N′-(4-fluorophenyl)-1-(2-morpholinoethyl)-6-oxo-1,6-dihydropyridine-3-carbohydrazide]"
–,0.26,"CN(C)C(=O)Cn1cc(C(=O)NNc2cccc(F)c2)ccc1=O [Example 75, 2-(5-(2-(3-fluorophenyl)hydrazine-1-carbonyl)-2-oxopyridine-1(2H)-yl)-N,N-dimethylacetamide]"
–,0.12,"COCCn1cc(C(=O)NNc2cccc(F)c2)ccc1=O [Example 76, N′-(3-fluorophenyl)-1-(2-methoxyethyl)-6-oxo-1,6-dihydropyridine-3-carbohydrazide]"
–,0.24,"COCCn1cc(C(=O)NNc2ccc(F)cc2)ccc1=O [Example 78, N′-(4-fluorophenyl)-1-(2-methoxyethyl)-6-oxo-1,6-dihydropyridine-3-carbohydrazide]"
